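Exposure lasted 48 hours, with cells grown in 96-well plates and compounds tested at five concentrations. GI50 is the concentration that inhibits growth by half.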 Active and inactive are the calls of the source. Rule as the data show it: active = GI50 up to about 1.1 µM and inactive = higher.
Experiments:
Experiment in all cases: growth of human tumour cells (NCI), 48 h
NCI-H460 = tested on: NCI-H460
NCI/ADR-RES = tested on: NCI/ADR-RES
ACHN = tested on: ACHN
786-0 = tested on: 786-0
SK-MEL-5 = tested on: SK-MEL-5
RXF 393 = tested on: RXF 393
HOP-62 = tested on: HOP-62
Malme-3M = tested on: Malme-3M
IGROV-1 = tested on: IGROV-1
NCI-H522 = tested on: NCI-H522
SR = tested on: SR
SF-539 = tested on: SF-539
T47D = tested on: T47D
MDA-MB-435 = tested on: MDA-MB-435
RPMI-8226 = tested on: RPMI-8226
SF-268 = tested on: SF-268
K562 = tested on: K562
MDA-MB-231 = tested on: MDA-MB-231
SK-MEL-28 = tested on: SK-MEL-28
HL-60 = tested on: HL-60
TK-10 = tested on: TK-10
HOP-92 = tested on: HOP-92
UO-31 = tested on: UO-31
Hs-578T = tested on: Hs-578T
U-251 = tested on: U-251
COLO 205 = tested on: COLO 205
OVCAR-4 = tested on: OVCAR-4
MOLT-4 = tested on: MOLT-4
A549 = tested on: A549
SK-OV-3 = tested on: SK-OV-3
KM12 = tested on: KM12
MDA-N = tested on: MDA-N
SN12C = tested on: SN12C
SNB-75 = tested on: SNB-75
HT-29 = tested on: HT-29
UACC-257 = tested on: UACC-257
HCT-15 = tested on: HCT-15
OVCAR-3 = tested on: OVCAR-3
PC-3 = tested on: PC-3
HCC 2998 = tested on: HCC 2998
A498 = tested on: A498
DU-145 = tested on: DU-145
SF-295 = tested on: SF-295
SNB-19 = tested on: SNB-19
NCI-H226 = tested on: NCI-H226
CAKI-1 = tested on: CAKI-1
HCT-116 = tested on: HCT-116
BT-549 = tested on: BT-549
MCF7 = tested on: MCF7
M14 = tested on: M14
CCRF-CEM = tested on: CCRF-CEM
NCI-H23 = tested on: NCI-H23
OVCAR-8 = tested on: OVCAR-8
OVCAR-5 = tested on: OVCAR-5
UACC-62 = tested on: UACC-62
SW-620 = tested on: SW-620

CC(=O)O[C@H]1C(=O)[C@@]2(C)[C@H]([C@H](OC(=O)c3cccc(C(F)(F)F)c3)[C@]3(O)C[C@H](OC(=O)[C@H](O)[C@@H](NC(=O)c4ccccc4)c4ccccc4)C(C)=C1C3(C)C)[C@]1(OC(C)=O)CO[C@@H]1C[C@@H]2O
GI50 (NCI-H460): 4.69 nM (active) | GI50 (NCI/ADR-RES): 1400 nM (inactive) | GI50 (ACHN): 377 nM (active) | GI50 (786-0): 4.39 nM (active) | GI50 (SK-MEL-5): < 2.5 nM (active) | GI50 (RXF 393): 22.2 nM (active) | GI50 (HOP-62): 16.2 nM (active) | GI50 (Malme-3M): 3.18 nM (active) | GI50 (IGROV-1): 7.03 nM (active) | GI50 (NCI-H522): < 2.5 nM (active) | GI50 (SR): < 2.5 nM (active) | GI50 (SF-539): < 2.5 nM (active) | GI50 (T47D): 4.55 nM (active) | GI50 (MDA-MB-435): < 2.5 nM (active) | GI50 (RPMI-8226): < 2.5 nM (active) | GI50 (SF-268): 223 nM (active) | GI50 (K562): < 2.5 nM (active) | GI50 (MDA-MB-231): 36.1 nM (active) | GI50 (SK-MEL-28): 1890 nM (inactive) | GI50 (HL-60): < 2.5 nM (active) | GI50 (TK-10): 175 nM (active) | GI50 (HOP-92): 520 nM (active) | GI50 (UO-31): 918 nM (active) | GI50 (Hs-578T): < 2.5 nM (active) | GI50 (U-251): < 2.5 nM (active) | GI50 (COLO 205): < 2.5 nM (active) | GI50 (OVCAR-4): 336 nM (active) | GI50 (MOLT-4): 4.27 nM (active) | GI50 (A549): 2.61 nM (active) | GI50 (SK-OV-3): 28.8 nM (active) | GI50 (KM12): < 2.5 nM (active) | GI50 (MDA-N): < 2.5 nM (active) | GI50 (SN12C): 6.03 nM (active) | GI50 (SNB-75): 4.34 nM (active) | GI50 (HT-29): < 2.5 nM (active) | GI50 (UACC-257): 108 nM (active) | GI50 (HCT-15): 268 nM | GI50 (OVCAR-3): < 2.5 nM (active) | GI50 (PC-3): < 2.5 nM (active) | GI50 (HCC 2998): 11.1 nM (active) | GI50 (A498): 131 nM (active) | GI50 (DU-145): 8.57 nM (active) | GI50 (SF-295): 38.7 nM (active) | GI50 (SNB-19): 88.9 nM (active) | GI50 (NCI-H226): 9.46 nM (active) | GI50 (CAKI-1): 906 nM (active) | GI50 (HCT-116): < 2.5 nM (active) | GI50 (BT-549): 35 nM (active) | GI50 (MCF7): < 2.5 nM (active) | GI50 (M14): 3.06 nM (active) | GI50 (CCRF-CEM): < 2.5 nM (active) | GI50 (NCI-H23): 11.5 nM (active) | GI50 (OVCAR-8): 2.52 nM (active) | GI50 (OVCAR-5): 4.75 nM (active) | GI50 (UACC-62): 5.26 nM (active) | GI50 (SW-620): < 2.5 nM (active)

From ChEMBL document CHEMBL1201862, “PubChem BioAssay data set” (2004)
